Data taken from patent publication US10392368B2, “Pyrazolo and triazolo bicyclic compounds as JAK kinase inhibitors” (THERAVANCE BIOPHARMA R&D IP, LLC, priority 2017, dated 2019).
Like-named read-outs stand apart in the source and are kept apart here.

Legend:
[1] = system: IL-2 stimulated pSTAT5 in Tall-1 T cells; assay: Cellular JAK3 potency assay: inhibition of IL-2 stimulated pSTAT5 in Tall-1 T cells; type: cell-based, human; conditions: for Tall-1 (pIC50): IL-2 stimulated pSTAT5, Tall-1 T cells; for IC50: Homo sapiens, read-out: Tall-1 (pIC50) (converted)
How it was run: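 Tall-1 human T cells (45,000/well) in phenol red-free DMEM with 10% FBS were preincubated with compound 1 h at 37 °C, then stimulated with IL-2 (final 300 ng/ml) for 30 min. Lysate pSTAT5 read by AlphaLisa; IC50 from inhibition curves, reported as pIC50 (mean±SD).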

[2] = target: T1, JAK2 (Homo sapiens, UniProt O60674); assay: Biochemical JAK2 kinase assay (LanthaScreen); conditions: for Ki: read-out: JAK 2 (pKi) (converted)
T1 construct: GST; purchased Life Technologies
How it was run: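 GST-tagged recombinant JAK2 pre-incubated 1 h at ambient temperature with compound and GFP-STAT1 peptide in HEPES pH 7.5/MgCl2 buffer, then ATP added for a 1 h reaction with 1% DMSO. TR-FRET read after EDTA and Tb-anti-pSTAT1 (pTyr701) addition; IC50 from 4-parameter fit, converted to pKi by Cheng-Prusoff.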

[3] = target: T2, JAK1 (Homo sapiens, UniProt P23458); assay: Biochemical JAK1 kinase assay (LanthaScreen); conditions: for Ki: read-out: JAK 1 (pKi) (converted)
T2 construct: GST; purchased Life Technologies
How it was run: (§1)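 Compounds were preincubated with the GST-tagged kinase and GFP-labelled STAT1 peptide for one hour before ATP initiated a one-hour reaction at ambient temperature. Phosphorylation was quantified by TR-FRET with a Tb-labelled pTyr701 antibody. Ki values were derived from IC50 using Cheng-Prusoff.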

[4] = target: T3, Tyk2 (Homo sapiens, UniProt P29597); assay: Biochemical Tyk2 kinase assay (LanthaScreen); conditions: for Ki: read-out: Tyk 2 (pKi) (converted)
T3 construct: GST; purchased Life Technologies
How it was run: as §1

[5] = target: T4, JAK3 (Homo sapiens, UniProt P52333); assay: Biochemical JAK3 kinase assay (LanthaScreen); design: GST; purchased Life Technologies; conditions: for Ki: read-out: JAK 3 (pKi) (converted)
T4 sequence (P52333 1-1124): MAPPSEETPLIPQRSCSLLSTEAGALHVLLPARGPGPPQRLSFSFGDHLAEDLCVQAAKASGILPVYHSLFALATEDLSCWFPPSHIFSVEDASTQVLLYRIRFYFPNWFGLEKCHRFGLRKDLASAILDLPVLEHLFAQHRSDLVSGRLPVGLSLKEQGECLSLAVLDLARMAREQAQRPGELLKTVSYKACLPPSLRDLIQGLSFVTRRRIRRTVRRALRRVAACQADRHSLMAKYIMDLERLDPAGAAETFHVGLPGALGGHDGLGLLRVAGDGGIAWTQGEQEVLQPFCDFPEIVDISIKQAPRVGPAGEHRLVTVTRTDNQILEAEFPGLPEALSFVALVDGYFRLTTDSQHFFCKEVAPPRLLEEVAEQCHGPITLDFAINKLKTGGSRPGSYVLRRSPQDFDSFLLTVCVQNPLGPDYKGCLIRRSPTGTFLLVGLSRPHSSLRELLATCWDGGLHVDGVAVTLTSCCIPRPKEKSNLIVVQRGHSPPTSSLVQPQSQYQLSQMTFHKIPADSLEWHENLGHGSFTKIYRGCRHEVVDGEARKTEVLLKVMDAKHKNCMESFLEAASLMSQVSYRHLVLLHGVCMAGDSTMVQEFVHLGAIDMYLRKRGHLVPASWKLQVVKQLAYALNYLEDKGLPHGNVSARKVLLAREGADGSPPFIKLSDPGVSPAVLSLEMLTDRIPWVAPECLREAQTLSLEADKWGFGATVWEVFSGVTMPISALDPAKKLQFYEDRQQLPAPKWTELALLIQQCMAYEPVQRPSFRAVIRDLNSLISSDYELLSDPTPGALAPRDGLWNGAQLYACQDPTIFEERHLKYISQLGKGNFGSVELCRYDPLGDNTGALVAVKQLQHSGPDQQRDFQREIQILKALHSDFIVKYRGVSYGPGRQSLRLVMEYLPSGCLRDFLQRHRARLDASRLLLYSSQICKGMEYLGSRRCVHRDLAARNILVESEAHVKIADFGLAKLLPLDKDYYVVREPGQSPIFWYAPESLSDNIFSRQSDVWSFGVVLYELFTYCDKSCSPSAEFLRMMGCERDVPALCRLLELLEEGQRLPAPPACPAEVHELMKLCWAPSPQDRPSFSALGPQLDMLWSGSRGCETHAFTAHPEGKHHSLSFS
How it was run: as §1

[6] = selectivity JAK3 over JAK1, difference of pKi
[7] = TALL-1, IL-2 stimulated pSTAT5 in Tall-1 T cells
[8] = selectivity: difference of pKi JAK3 and pKi JAK1
[9] = TALL-1, IL-2 stimulated pSTAT5, Tall-1 T cells

T2 sequence (P23458 whole entry): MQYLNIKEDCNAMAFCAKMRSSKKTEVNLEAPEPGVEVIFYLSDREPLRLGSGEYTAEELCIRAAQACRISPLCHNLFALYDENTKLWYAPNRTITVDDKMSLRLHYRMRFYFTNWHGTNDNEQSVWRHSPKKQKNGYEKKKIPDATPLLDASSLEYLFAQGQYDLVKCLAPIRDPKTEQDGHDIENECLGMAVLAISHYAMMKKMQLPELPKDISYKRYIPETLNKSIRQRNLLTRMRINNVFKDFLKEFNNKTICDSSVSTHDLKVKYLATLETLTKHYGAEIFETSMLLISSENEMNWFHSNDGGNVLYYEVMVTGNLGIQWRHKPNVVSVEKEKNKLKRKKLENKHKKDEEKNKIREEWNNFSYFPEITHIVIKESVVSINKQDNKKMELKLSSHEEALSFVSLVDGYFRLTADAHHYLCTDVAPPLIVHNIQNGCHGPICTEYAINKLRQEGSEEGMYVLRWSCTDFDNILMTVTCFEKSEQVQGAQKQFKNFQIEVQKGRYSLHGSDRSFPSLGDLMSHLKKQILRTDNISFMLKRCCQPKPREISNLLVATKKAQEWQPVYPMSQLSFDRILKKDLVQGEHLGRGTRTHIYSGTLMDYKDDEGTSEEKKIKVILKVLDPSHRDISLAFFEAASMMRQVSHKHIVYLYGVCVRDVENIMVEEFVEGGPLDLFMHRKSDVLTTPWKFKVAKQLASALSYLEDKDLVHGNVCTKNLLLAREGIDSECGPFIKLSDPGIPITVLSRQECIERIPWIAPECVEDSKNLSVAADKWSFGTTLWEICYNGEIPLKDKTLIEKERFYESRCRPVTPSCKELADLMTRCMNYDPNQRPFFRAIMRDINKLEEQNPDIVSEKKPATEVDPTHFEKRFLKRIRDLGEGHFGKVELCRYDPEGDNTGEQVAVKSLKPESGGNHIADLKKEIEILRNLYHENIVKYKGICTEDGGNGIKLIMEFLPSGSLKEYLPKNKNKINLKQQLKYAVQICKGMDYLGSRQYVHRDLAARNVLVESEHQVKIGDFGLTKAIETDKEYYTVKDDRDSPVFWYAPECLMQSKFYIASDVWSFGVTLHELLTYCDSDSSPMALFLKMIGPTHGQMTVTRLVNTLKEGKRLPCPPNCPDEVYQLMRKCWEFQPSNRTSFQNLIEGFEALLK
T3 sequence (P29597 whole entry): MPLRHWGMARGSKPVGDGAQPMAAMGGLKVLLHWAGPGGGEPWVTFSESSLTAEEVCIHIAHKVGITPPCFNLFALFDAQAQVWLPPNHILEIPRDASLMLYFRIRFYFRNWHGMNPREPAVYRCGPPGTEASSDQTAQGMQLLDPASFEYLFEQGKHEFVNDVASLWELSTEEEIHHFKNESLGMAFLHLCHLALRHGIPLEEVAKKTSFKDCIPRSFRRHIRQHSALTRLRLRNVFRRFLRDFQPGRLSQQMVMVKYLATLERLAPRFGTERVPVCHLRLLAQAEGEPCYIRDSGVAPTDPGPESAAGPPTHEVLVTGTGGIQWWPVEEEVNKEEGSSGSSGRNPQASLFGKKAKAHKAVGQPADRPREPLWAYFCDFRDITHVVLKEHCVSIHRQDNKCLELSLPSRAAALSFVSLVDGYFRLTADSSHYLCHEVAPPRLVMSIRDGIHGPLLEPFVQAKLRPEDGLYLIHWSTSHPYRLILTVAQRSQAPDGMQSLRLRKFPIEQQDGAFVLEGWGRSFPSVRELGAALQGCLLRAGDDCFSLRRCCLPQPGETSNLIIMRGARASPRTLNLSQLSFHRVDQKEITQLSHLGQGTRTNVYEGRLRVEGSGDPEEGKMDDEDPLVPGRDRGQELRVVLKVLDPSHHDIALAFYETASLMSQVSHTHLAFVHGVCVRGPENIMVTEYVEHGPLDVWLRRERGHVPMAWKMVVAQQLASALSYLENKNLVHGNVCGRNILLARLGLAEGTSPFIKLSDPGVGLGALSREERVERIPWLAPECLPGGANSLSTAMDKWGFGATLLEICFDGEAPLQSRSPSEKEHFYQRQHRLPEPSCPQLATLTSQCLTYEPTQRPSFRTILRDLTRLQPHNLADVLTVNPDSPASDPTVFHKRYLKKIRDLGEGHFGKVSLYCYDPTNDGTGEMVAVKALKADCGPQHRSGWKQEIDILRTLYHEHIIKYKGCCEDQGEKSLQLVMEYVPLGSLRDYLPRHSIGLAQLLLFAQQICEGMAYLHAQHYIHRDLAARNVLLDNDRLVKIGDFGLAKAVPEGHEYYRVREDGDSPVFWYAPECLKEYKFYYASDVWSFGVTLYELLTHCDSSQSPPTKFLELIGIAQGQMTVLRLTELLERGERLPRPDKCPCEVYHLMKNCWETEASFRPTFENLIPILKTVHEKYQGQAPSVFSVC
T1 sequence (O60674 whole entry): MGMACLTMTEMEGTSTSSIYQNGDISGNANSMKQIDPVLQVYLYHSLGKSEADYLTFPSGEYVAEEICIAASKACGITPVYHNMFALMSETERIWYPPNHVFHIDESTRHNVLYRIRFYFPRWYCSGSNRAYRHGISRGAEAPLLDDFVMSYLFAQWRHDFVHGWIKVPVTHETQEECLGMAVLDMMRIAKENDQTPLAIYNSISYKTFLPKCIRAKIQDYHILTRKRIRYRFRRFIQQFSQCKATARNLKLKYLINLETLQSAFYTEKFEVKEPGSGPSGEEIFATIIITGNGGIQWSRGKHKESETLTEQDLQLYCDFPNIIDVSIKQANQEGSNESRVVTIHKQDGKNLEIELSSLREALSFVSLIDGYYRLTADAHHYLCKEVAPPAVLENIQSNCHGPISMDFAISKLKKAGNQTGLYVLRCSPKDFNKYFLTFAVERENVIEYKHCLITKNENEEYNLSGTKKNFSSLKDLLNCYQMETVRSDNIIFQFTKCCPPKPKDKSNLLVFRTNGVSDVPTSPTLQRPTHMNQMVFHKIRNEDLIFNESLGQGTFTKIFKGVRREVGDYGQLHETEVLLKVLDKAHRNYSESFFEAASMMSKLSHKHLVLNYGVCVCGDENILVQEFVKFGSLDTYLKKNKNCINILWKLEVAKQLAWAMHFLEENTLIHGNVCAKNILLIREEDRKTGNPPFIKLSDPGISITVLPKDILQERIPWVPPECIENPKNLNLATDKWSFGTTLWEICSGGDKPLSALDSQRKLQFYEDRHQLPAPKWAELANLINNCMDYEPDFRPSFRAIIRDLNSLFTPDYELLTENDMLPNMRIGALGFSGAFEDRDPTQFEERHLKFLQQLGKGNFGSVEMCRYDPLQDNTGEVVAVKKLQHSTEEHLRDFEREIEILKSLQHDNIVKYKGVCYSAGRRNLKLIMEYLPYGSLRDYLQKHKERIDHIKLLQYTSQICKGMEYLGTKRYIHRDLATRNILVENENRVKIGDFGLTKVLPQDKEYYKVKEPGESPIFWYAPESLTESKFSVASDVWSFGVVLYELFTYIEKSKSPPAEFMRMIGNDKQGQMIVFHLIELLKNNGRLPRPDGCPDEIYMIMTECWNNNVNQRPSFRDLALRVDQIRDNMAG

Row | SMILES | Tall-1 (pIC50) [1] | JAK 2 (pKi) [2] | JAK 1 (pKi) [3] | Tyk 2 (pKi) [4] | JAK 3 (pKi) [5] | JAK3 (pKi)-JAK1 (pKi) [5, 6] | IC50 [1, 7] | Ki [2] | Ki [3] | Ki [4] | Ki [5] | JAK3 (pKi)-JAK1 (pKi) [5, 8] | IC50 [1, 9]
1 | C=CC(=O)N1C2CCC1CC(Nc1cc(-c3ccc(O)cc3)cc3[nH]ncc13)C2 (stereo not drawn) [Compound 9-9] | A (a pIC50 value≥7.5 (IC50≤32 nM)) | C (a pKi value between 8 and 9 (Ki between 10 nM and 1 nM)) | D (a pKi value between 7 and 8 (Ki between 100 nM and 10 nM)) | D (a pKi value between 7 and 8 (Ki between 100 nM and 10 nM)) | A (a pKi value≥10 (Ki≤0.1 nM)) | B (a value of 2.3 to 3) |  |  |  |  |  |  | 
2 | C=CC(=O)N1CC(COc2cc(-c3ccc(O)cc3)nc3[nH]ncc23)C1 [Compound 10, 1-(3-(((6-(4-hydroxyphenyl)-1H-pyrazolo[3,4-b]pyridin-4-yl)oxy)methyl)azetidin-1-yl)prop-2-en-1-one] |  |  |  |  |  |  | 31.6 to 200 nM | > 100 nM | > 100 nM | > 100 nM | < 0.1 nM | A (a value of 3 or above) | 
3 | C=CC(=O)N1C2CCC1CC(Oc1cc(-c3ccc(O)cc3)cc3[nH]ncc13)C2 (stereo not drawn) [Compound 10-2] | A (a pIC50 value≥7.5 (IC50≤32 nM)) | C (a pKi value between 8 and 9 (Ki between 10 nM and 1 nM)) | D (a pKi value between 7 and 8 (Ki between 100 nM and 10 nM)) | D (a pKi value between 7 and 8 (Ki between 100 nM and 10 nM)) | A (a pKi value≥10 (Ki≤0.1 nM)) | B (a value of 2.3 to 3) |  |  |  |  |  |  | 
4 | C=CC(=O)N1C2CCC1CC(Oc1cc(-c3ccc(O)c(Cl)c3)cc3[nH]ncc13)C2 (stereo not drawn) [Compound 10-4] | B (a pIC50 value between 6.7 (included) and 7.5 (IC50 between 200 nM and 32 nM)) | D (a pKi value between 7 and 8 (Ki between 100 nM and 10 nM)) | E (a pKi value of 7 or below (Ki of 100 nM or above)) | E (a pKi value of 7 or below (Ki of 100 nM or above)) | B (a pKi value between 9 and 10 (Ki between 1 nM and 0.1 nM)) | A (a value of 3 or above) |  |  |  |  |  |  | 
5 | C=CC(=O)N1C2CCC1CC(Nc1cc(-c3ccc(O)cc3)cc3[nH]ncc13)C2 (stereo not drawn) [Compound 10-7] | B (a pIC50 value between 6.7 (included) and 7.5 (IC50 between 200 nM and 32 nM)) | D (a pKi value between 7 and 8 (Ki between 100 nM and 10 nM)) | E (a pKi value of 7 or below (Ki of 100 nM or above)) | E (a pKi value of 7 or below (Ki of 100 nM or above)) | B (a pKi value between 9 and 10 (Ki between 1 nM and 0.1 nM)) | A (a value of 3 or above) |  |  |  |  |  |  | 
6 | CN(C)C/C=C/C(=O)N1CC(CN(C)c2cc(-c3ccc(O)cc3)cc3[nH]ncc23)C1 [Compound 11, (E)-4-(dimethylamino)-1-(3-(((6-(4-hydroxyphenyl)-1H-indazol-4-yl)(methyl)amino)methyl)azetidin-1-yl)but-2-en-1-one] |  |  |  |  |  |  | 31.6 to 200 nM | > 100 nM | > 100 nM | > 100 nM | 0.1 to 1 nM | A (a value of 3 or above) | 
7 | C=CC(=O)N1CC[C@H](Sc2cc(-c3ccc(O)cc3)cc3[nH]ncc23)C1 [Compound 12, (S)-1-(3-((6-(4-hydroxyphenyl)-1H-indazol-4-yl)thio)pyrrolidin-1-yl)prop-2-en-1-one] |  |  |  |  |  |  | 31.6 to 200 nM | > 100 nM | > 100 nM | > 100 nM | 0.1 to 1 nM | B (a value of 2.3 to 3) | 
8 | CN(C)C/C=C/C(=O)N1CC[C@H](Sc2cc(-c3ccc(O)cc3)cc3[nH]ncc23)C1 [Compound 12-1] |  |  |  |  |  | A (a value of 3 or above) |  | 10 to 100 nM | > 100 nM | > 100 nM | 0.1 to 1 nM |  | 31.6 to 200 nM
9 | C=CC(=O)N1CCC(Sc2cc(-c3ccc(O)cc3)cc3[nH]ncc23)CC1 [Compound 12-4] |  |  |  |  |  | A (a value of 3 or above) |  | > 100 nM | > 100 nM | > 100 nM | 0.1 to 1 nM |  | 31.6 to 200 nM
